Assay results reported in patent publication US10640533B2, “Epoxyketone compounds for enzyme inhibition” (CENTRAX INTERNATIONAL, INC., priority 2014, dated 2020).
Converted amounts (≈) assume the structure as drawn. Read-outs that look alike come from different tables or passages of the source.

Key:
[1] = target: 20S Immunoproteasome chymotrypsin-like (CT-L) activity (Homo sapiens (Human), UniProt P20618+P28062); assay: 20S immunoproteasome CT-L activity inhibition, fluorogenic substrate succinyl-Leu-Leu-Val-Tyr-AMC; assay type: biochemical; conditions: purified human 20S proteasome, room temperature, one hour
Experimental: (§1) Inhibition of the 20S proteasome can be determined by methods and assays known in the art, for example, as disclosed by Stein et al., Biochemistry (1996), 35, 3899-3908; by Lightcap et al., Clinical Chemistry, 2000, 46, 673-683; by Kisselev et al., Journal of Biological Chemistry. (2006), 281, 8582-8590 and in U.S. application Ser. No. 09/569,748. The chymotrypsin-like (CT-L), peptidylglutamyl peptide hydrolyzing (PGPH) and trypsin-like (T-L) activities of the 20S proteasome are measured with a fluorogenic substrate assay method using succinyl-Leu-Leu-Val-Tyr-AMC, Z-Leu-Leu-Glu-AMC and Boc-Leu-Arg-Arg-AMC, respectively, as the substrates in an assay buffer. The free fluorophore 7-Amino-4-methylcoumarin (AMC) after cleavage from the substrates is quantified using a fluorometer and activity of CT-L, PGPH and T-L of 20S proteasome is determined.
(§2) Inhibition of the chymotrypsin-like (CT-L), peptidylglutamyl peptide hydrolyzing activity (PGPH), and trypsin-like (T-L) activities of the 20S proteasome in enzymatic assays were determined using succinyl-Leu-Leu-Val-Tyr-AMC (10 μmol/L), Z-Leu-Leu-Glu-AMC (10 μmol/L) and Boc-Leu-Arg-Arg-AMC (50 μmol/L), respectively, as the substrates with purified human 20S proteasome at 2, 4 and 8 nmol/L, respectively, in the assay buffer containing 25 mM HEPES (pH7.5), 0.5 mM EDTA, 0.002% sodium dodecyl sulfate (SDS) and 0.05% NP-40. Stock solutions of the 20S proteasome inhibitors disclosed herein were prepared in dimethyl sulfoxide (DMSO) and the final DMSO concentration in the assay mixture was 1%. Reaction was conducted at room temperature for one hour. Proteasome activity was measured based on detection of the fluorophore 7-Amino-4-methylcoumarin (AMC) after cleavage from the substrates with a plate-based spectrofluorometer.

[2] = target: 20S Immunoproteasome peptidylglutamyl peptide hydrolyzing (PGPH) activity (Homo sapiens (Human), UniProt P28065+P40306); assay: 20S immunoproteasome PGPH activity inhibition, fluorogenic substrate Z-Leu-Leu-Glu-AMC; assay type: biochemical; conditions: purified human 20S proteasome, room temperature, one hour
Experimental: as §1, §2

[3] = target: 20S Immunoproteasome trypsin-like (T-L) activity (Homo sapiens (Human), UniProt P40306+P49720); assay: 20S immunoproteasome T-L activity inhibition, fluorogenic substrate Boc-Leu-Arg-Arg-AMC; assay type: biochemical; conditions: purified human 20S proteasome, room temperature, one hour
Experimental: as §1, §2

[4] = target: Constitutive 20S proteasome chymotrypsin-like (CT-L) activity (Homo sapiens (Human), UniProt P20618+P28074); assay: Constitutive 20S proteasome CT-L activity inhibition, fluorogenic substrate succinyl-Leu-Leu-Val-Tyr-AMC; assay type: biochemical
Experimental: as §1, §2

[5] = target: Constitutive 20S proteasome peptidylglutamyl peptide hydrolyzing (PGPH) activity (Homo sapiens (Human), UniProt P28072+Q99436); assay: Constitutive 20S proteasome PGPH activity inhibition, fluorogenic substrate Z-Leu-Leu-Glu-AMC; assay type: biochemical; conditions: purified human 20S proteasome, room temperature, one hour
Experimental: as §1, §2

[6] = target: Constitutive 20S proteasome trypsin-like (T-L) activity (Homo sapiens (Human), UniProt P49720+Q99436); assay: Constitutive 20S proteasome T-L activity inhibition, fluorogenic substrate Boc-Leu-Arg-Arg-AMC; assay type: biochemical
Experimental: as §1, §2

[7] = Aqueous solubility of the compounds; assay type: physicochemical; conditions: 50 mM citrate buffer, pH 4, aqueous buffer, thermodynamic from solid, 50 mM citrate pH4.0, 25° C.
Experimental: To determine the solubility of the compounds, 1-5 mg of a compound was weighed into a vial. 1 mL of aqueous buffer (50 mM citrate at pH4.0) was added. The vial was shaken at 25° C. for 24 hours and then centrifuged for 10 min at 10000 rpm. The supernatant was filtered through a 0.45 μm membrane filter and analyzed for the concentration of the compound. In certain embodiments, the aqueous solubility of the compounds is described herein in Table 1.

[8] = form of 20S proteasome not stated, 'below about'
[9] = purified human 20S proteasome, room temperature, one hour, read-out: Proteasome inhibition IC50 (nM) Constitutive 20S proteasome CT-L
[10] = purified human 20S proteasome, room temperature, one hour, read-out: Proteasome inhibition IC50 (nM) Constitutive 20S proteasome T-L
[11] = form of 20S proteasome not stated, 'below about', read-out: concentration showing inhibition of T-L activity of the 20S proteasome

Structure (SMILES)	IC50 [1] [nM]	IC50 [2] [nM]	IC50 [3] [nM]	IC50 [4, 8] [nM]	IC50 [4, 9] [nM]	IC50 [5] [nM]	IC50 [6, 10] [nM]	solubility at 24 h [7] [µg/mL]	IC50 [6, 11] [nM]
CC(C)C[C@H](NC(=O)[C@H](CCc1ccccc1)NC(=O)c1cc(CN2CCOCC2)on1)C(=O)N[C@@H](Cc1ccncc1)C(=O)[C@@]1(C)CO1 [CX13-104]	33.6	> 20000	> 20000	< 50	33.3	> 20000	> 20000	1440 (≈ 2130 µM)	
CC(=O)N[C@@H](CCc1ccccc1)C(=O)N[C@@H](Cc1ccncc1)C(=O)N[C@@H](CC(C)C)C(=O)[C@@]1(C)CO1 [CX13-130]	248	> 20000	1650	< 100	62.4	> 20000	3600	1360 (≈ 2600 µM)	
CC(C)C[C@H](NC(=O)[C@H](Cc1ccccc1)NC(=O)[C@H](CCc1ccccc1)NC(=O)c1cc(CN2CCOCC2)on1)C(=O)[C@@]1(C)CO1 [CX13-600]	7.41	> 20000	19900	< 5	4.28	> 20000	> 20000	20 (≈ 29.7 µM)	
COC[C@H](NC(=O)[C@H](CCc1ccccc1)NC(=O)c1cc(CN2CCOCC2)on1)C(=O)N[C@@H](CC(C)C)C(=O)[C@@]1(C)CO1 [CX13-601]	31.7	> 20000	> 20000	< 50	16	> 20000	> 20000	480 (≈ 765 µM)	
Cc1cc(C(=O)N[C@@H](CCc2ccccc2)C(=O)N[C@@H](Cc2ccncc2)C(=O)N[C@@H](CC(C)C)C(=O)[C@@]2(C)CO2)no1 [CX13-135]	28.1	> 20000	6450	< 10	6.56	> 20000	13400	1160 (≈ 1970 µM)	
CC(C)C[C@H](NC(=O)[C@H](Cc1ccncc1)NC(=O)[C@H](CCc1ccccc1)NC(=O)Cc1ccc(CN2CCOCC2)cc1)C(=O)[C@@]1(C)CO1 [CX13-133]	4.65	> 20000	455	< 5	3.58	> 20000	443	6360 (≈ 9110 µM)	< 500
CC(C)C[C@H](NC(=O)[C@H](CCc1ccccc1)NC(=O)CN1CCOCC1)C(=O)N[C@@H](Cc1ccccc1)C(=O)[C@@]1(C)CO1 [CX13-107]	5.1	> 20000	6220	< 5	4.74	> 20000	9950	83 (≈ 137 µM)	
COC[C@H](NC(=O)[C@H](CCc1ccccc1)NC(=O)c1cnc(C)s1)C(=O)N[C@@H](Cc1ccccc1)C(=O)[C@@]1(C)CO1 [CX13-705]	15.3	> 20000	> 20000	< 10	9.75	> 20000	15800	20 (≈ 33.7 µM)	
CC(C)C[C@H](NC(=O)[C@H](CCc1ccccc1)NC(=O)c1cc(CN2CCOCC2)on1)C(=O)N[C@@H](Cc1ccccc1)C(=O)[C@@]1(C)CO1 [CX13-105]	1.34	> 20000	> 20000	< 5	0.97	> 20000	> 20000	21 (≈ 31.2 µM)	
Cc1ncc(C(=O)N[C@@H](CCc2ccccc2)C(=O)N[C@@H](Cc2ccncc2)C(=O)N[C@@H](CC(C)C)C(=O)[C@@]2(C)CO2)s1 [CX13-137]	60.4	> 20000	5860	< 50	13.5	> 20000	11900	910 (≈ 1500 µM)	
COC[C@H](NC(=O)c1cc(C)on1)C(=O)N[C@@H](Cc1ccncc1)C(=O)N[C@@H](CC(C)C)C(=O)[C@@]1(C)CO1 [CX13-501]	392	> 20000	> 20000		113	> 20000	> 20000	4480 (≈ 8460 µM)	
COC[C@H](NC(=O)c1cc(CN2CCOCC2)on1)C(=O)N[C@@H](Cc1ccncc1)C(=O)N[C@@H](CC(C)C)C(=O)[C@@]1(C)CO1 [CX13-500]	170	> 20000	> 20000		121	> 20000	> 20000	> 2350	
COC[C@H](NC(=O)[C@H](CCc1ccccc1)NC(=O)Cc1ccc(CN2CCOCC2)cc1)C(=O)N[C@@H](CC(C)C)C(=O)[C@@]1(C)CO1 [CX13-606]	59.3	> 20000	186	< 10	6.1	> 20000	297	3730 (≈ 5730 µM)	< 500
COC[C@H](NC(=O)c1cnc(C)s1)C(=O)N[C@@H](COC)C(=O)N[C@@H](Cc1ccccc1)C(=O)[C@@]1(C)CO1 [CX13-709]								570 (≈ 1070 µM)	
CC(C)C[C@H](NC(=O)[C@H](CCc1ccccc1)NC(=O)CN1CCOCC1)C(=O)N[C@@H](Cc1ccncc1)C(=O)[C@@]1(C)CO1 [CX13-109]	> 500	> 20000	> 20000		> 500	> 20000	> 20000	3490 (≈ 5740 µM)	
C[C@]1(C(=O)[C@H](Cc2ccccc2)NC(=O)[C@H](Cc2cscn2)NC(=O)[C@H](CCc2ccccc2)NC(=O)c2cc(CN3CCOCC3)on2)CO1 [CX13-605]	6.81	> 20000	> 20000	< 10	12.2	> 20000	> 20000	120 (≈ 168 µM)	
